Measurements as given in patent publication USRE37886E1, “1-(1,2-Disubstituted piperidinyl)-4-substituted piperazine derivatives” (Janssen Pharmaceuticals, N.V., priority 1995, dated 2002).

Legend:
[1] = system: substance P induced plasma extravasation; experiment: Antagonism of substance P induced plasma extravasation in guinea-pigs; assay type: in vivo; details: lowest active dose, female guinea-pigs; for LAD nose: compound 1 hour prior to substance P (2 mg/kg, femoral artery), blue colouring of nose 10 minutes after challenge; for LAD conjunctiva / LAD forepaws / LAD trachea / LAD urinary bladder: compound 1 hour prior to substance P; for LAD conjunctiva: blue colouring of conjunctiva 10 minutes after challenge; for LAD forepaws: blue colouring of forepaws 10 minutes after challenge; for LAD trachea: blue colouring of trachea 30 minutes after challenge; for LAD urinary bladder: blue colouring of urinary bladder 30 minutes after challenge
Procedure, shortened: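 Female guinea-pigs dosed with compound 1 hour before femoral-artery substance P (2 mg/kg) plus Evans Blue (30 mg/kg). Blue colouring of nose, forepaws and conjunctiva scored at 10 minutes, trachea and bladder at 30 minutes; value is lowest active dose (mg/kg).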

[2] = system: substance-P induced relaxation of the pig coronary arteries; experiment: Antagonism of substance-P induced relaxation of the pig coronary arteries; assay type: cell-based; details: concentration at which 50% of the response to 10^−9 M substance P was inhibited; 30 minutes incubation; prostaglandin F2a precontracted segments
Procedure, shortened: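 Inverted pig coronary artery segments (endothelium outside) in Krebs-Henseleit, 37 °C, O2/CO2 95/5, precontracted with prostaglandin F2a (10^−5 M); substance P 3×10^−10 and 10^−9 M added cumulatively. Compound incubated 30 min before repeat challenge; IC50 is concentration inhibiting 50% of the relaxation to 10^−9 M substance P.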

Row | Structure (SMILES) | LAD nose [1] | LAD conjunctiva [1] | LAD forepaws [1] | LAD trachea [1] | LAD urinary bladder [1] | IC50 [2]
1 | O=C(CN1CCN(C2CCN(C(=O)c3cc(C(F)(F)F)cc(C(F)(F)F)c3)C(Cc3ccccc3)C2)CC1)NC1(c2ccccc2)CCCCC1 (stereo not drawn) [Compound 49] | 2.50 mg/kg | 2.50 mg/kg | 2.50 mg/kg | 10.0 mg/kg | >40 mg/kg | 0.59 nM
2 | Cc1cccc(C)c1NC(=O)CN1CCN(C2CCN(C(=O)c3cc(C(F)(F)F)cc(C(F)(F)F)c3)C(Cc3ccc(Cl)c(Cl)c3)C2)CC1 (racemic) [Compound 138] | 2.50 mg/kg | 2.50 mg/kg | 2.50 mg/kg | 10.0 mg/kg | >40 mg/kg | 0.16 nM
3 | Cc1cccc(C)c1NC(=O)CN1CCN(C2CCN(C(=O)c3cc(C(F)(F)F)cc(C(F)(F)F)c3)C(Cc3ccccc3)C2)CC1 (racemic) [Compound 59] | 2.50 mg/kg | 2.50 mg/kg | 2.50 mg/kg | 5.00 mg/kg | 5.00 mg/kg | 1.2 nM
4 | CCOCCn1c(CN2CCN(C3CCN(C(=O)c4cc(C(F)(F)F)cc(C(F)(F)F)c4)C(Cc4ccccc4)C3)CC2)nc2cccnc21 (racemic) [Compound 25] | 2.50 mg/kg | 10.0 mg/kg | 2.50 mg/kg | >40 mg/kg | >40 mg/kg | 0.79 nM
5 | Cc1cc(C)cc(NC(=O)CN2CCN(C3CCN(C(=O)c4cc(C(F)(F)F)cc(C(F)(F)F)c4)C(Cc4ccccc4)C3)CC2)c1 (stereo not drawn) [Compound 50] | 10.0 mg/kg | 10.0 mg/kg | 10.0 mg/kg | 10.0 mg/kg | >40 mg/kg | 2.43 nM
6 | COc1ccccc1N1CCN(C2CCN(C(=O)c3cc(C(F)(F)F)cc(C(F)(F)F)c3)C(Cc3ccccc3)C2)CC1 (racemic) [Compound 56] | 10.0 mg/kg | 10.0 mg/kg | 10.0 mg/kg | 40.0 mg/kg | 2.50 mg/kg | 3.25 nM
7 | COc1ccccc1NC(=O)CN1CCN(C2CCN(C(=O)c3cc(C(F)(F)F)cc(C(F)(F)F)c3)C(Cc3ccccc3)C2)CC1 (stereo not drawn) [Compound 38] | 10.0 mg/kg | 10.0 mg/kg | 10.0 mg/kg | >40 mg/kg | >40 mg/kg | 0.86 nM
8 | O=C(CN1CCN(C2CCN(C(=O)c3cc(C(F)(F)F)cc(C(F)(F)F)c3)C(Cc3ccccc3)C2)CC1)N1CCCc2ccccc21 (racemic) [Compound 101] | 10.0 mg/kg | 10.0 mg/kg | 10.0 mg/kg | >40 mg/kg | >40 mg/kg | 0.75 nM
9 | Cc1cccc(C)c1NC(=O)C(c1ccccc1)N1CCN(C2CCN(C(=O)c3cc(C(F)(F)F)cc(C(F)(F)F)c3)C(Cc3ccccc3)C2)CC1 (racemic) [Compound 94] | 2.50 mg/kg | 2.50 mg/kg | 2.50 mg/kg | 10.0 mg/kg | 10.0 mg/kg | 0.42 nM
10 | O=C(C(c1ccccc1)N1CCN(C2CCN(C(=O)c3cc(C(F)(F)F)cc(C(F)(F)F)c3)C(Cc3ccccc3)C2)CC1)N1CCCC1 (mixture of isomers) [Compound 52] | 0.63 mg/kg | 2.50 mg/kg | 0.63 mg/kg | 10.0 mg/kg | 10.0 mg/kg | 1.1 nM
11 | Cc1ncc(Cn2c(N3CCCN(C4CCN(C(=O)c5cc(C(F)(F)F)cc(C(F)(F)F)c5)C(Cc5ccccc5)C4)CC3)nc3ccccc32)o1 (stereo not drawn) [Compound 34] | 2.50 mg/kg | 2.50 mg/kg | 10.0 mg/kg | 10.0 mg/kg | 10.0 mg/kg | 0.35 nM
